{"source": "patent US8962691B2", "about": "“Retinoid replacements and opsin agonists and methods for the use thereof” (University of Washington, priority 2003, dated 2015)", "key": {"Rpe65−/− mice": {"system": "Rpe65−/− mice", "assay": "Light and electron microscopy of RPE-ROS interface", "assay_type": "in vivo, mouse", "description": "Eye cups were prepared by removing the anterior segment and vitreous. […] “Thin” sections (1.0 μm) were stained with Richardson's blue solution (1%) and subjected to light microscopy. “Ultrathin” sections (0.05 μm) were stained with uranyl acetate/lead citrate and subjected to electron microscopy."}, "phosphorylated opsin": {"target": "T1, phosphorylated opsin (Mus musculus, UniProt P15409)", "T1 construct": "The retinas from Rpe65+/+ mice and Rpe65−/− mice were fixed in constant darkness; from tissue; host or cells: retina sections of Rpe65-/- and Rpe65+/+ mice (in vivo dosing)", "T1 sequence (P15409 whole entry)": "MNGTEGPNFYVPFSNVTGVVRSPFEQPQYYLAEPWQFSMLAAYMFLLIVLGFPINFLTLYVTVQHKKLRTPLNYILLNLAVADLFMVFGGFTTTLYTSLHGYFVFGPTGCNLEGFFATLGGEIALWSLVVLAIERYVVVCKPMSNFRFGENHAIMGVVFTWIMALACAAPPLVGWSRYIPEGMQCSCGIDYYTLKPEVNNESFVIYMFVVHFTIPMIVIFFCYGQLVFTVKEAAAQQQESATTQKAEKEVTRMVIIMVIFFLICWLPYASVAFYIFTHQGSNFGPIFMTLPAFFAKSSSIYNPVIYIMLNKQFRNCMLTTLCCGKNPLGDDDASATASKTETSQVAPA", "assay": "Immunocytochemistry with anti-phosphorylated Rh antibody", "assay_type": "in vivo", "settings": "gavaged once at PND 30, analyzed 48 hours post-treatment, dark", "description": "Rpe65 mice were divided into five groups: Rpe65−/−, Rpe65−/− that were gavaged with 9-cis-retinal and kept in the dark; Rpe65−/− that were gavaged with 9-cis-retinal, exposed to a flash, and kept in the dark for 15 min; Rpe65+/+ that were kept in the dark; and Rpe65+/+ that were exposed to a flash and kept in the dark for 15 minutes. For the flash studies, dark-adapted mice were subjected to a flash (Sunpak 433D, 1 ms) from a distance of 2 cm. The retinas were fixed in 4% paraformalydehyde in 0.13 M sodium phosphate, pH 7.4, for 15 hours at 4° C., and the tissues were transferred to 5, 10, or 15% sucrose in 0.13 M sodium phosphate, pH 7.4, for 30 minutes each time and stored overnight in 20% sucrose in the same buffer at 4° C. The tissue was then transferred to optimal cutting temperature cryoembedding compound and sectioned at 10 μm. The cryosections were incubated overnight at 4° C. in mouse monoclonal anti-phosphorylated Rh A11-82P antibody diluted 1:10. Triton X-100 (0.1%) was included in all phosphate-buffered saline solutions to facilitate antibody penetration. The controls were processed by omitting primary antibodies from the incubation buffer. After incubation in primary antibodies, the sections were rinsed with phosphate-buffered saline and then incubated with indocarbocyanine (Cy3)-conjugated goat anti-mouse IgG (1:200). […]"}}, "data": [{"smiles": "CC1=C(/C=C/C(C)=C\\C=C\\C(C)=C\\C=O)C(C)(C)CCC1", "note": "[9-cis-retinal]", "values": [{"measurement": "filling of RPE vacuoles (lipid-like droplets)", "setting": "Rpe65−/− mice; early treated mice, over several months", "result": "only partially filled"}, {"measurement": "interface contacts between the RPE and ROS", "setting": "Rpe65−/− mice; young animals or young adults treated", "result": "improved"}, {"measurement": "ROS labeling by antibody against phosphorylated opsin", "setting": "phosphorylated opsin", "result": "abolished"}]}]}
